US10745382B2 (BRISTOL-MYERS SQUIBB COMPANY, priority 2015, dated 2020)

Biological target: T1, PD-1/PD-L1 (Homo sapiens, UniProt Q9NZQ7)
T1 construct: made in house; host or cells: HEK293T
Experiment: PD-1/PD-L1 Homogenous Time-Resolved Fluorescence (HTRF) binding assay
Conditions: PD-L1-His 10 nM, PD-1-Ig 20 nM; value given as range class; read-out: Range or IC50
How it was run: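 Compounds are tested for blocking the PD-1/PD-L1 interaction in dPBS supplemented with 0.1% BSA and 0.05% (v/v) Tween-20. Tagged proteins are detected with Eu-cryptate anti-Ig and APC anti-His at 1 and 20 nM final.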

T1 sequence (Q9NZQ7 with tags, fused parts or gaps): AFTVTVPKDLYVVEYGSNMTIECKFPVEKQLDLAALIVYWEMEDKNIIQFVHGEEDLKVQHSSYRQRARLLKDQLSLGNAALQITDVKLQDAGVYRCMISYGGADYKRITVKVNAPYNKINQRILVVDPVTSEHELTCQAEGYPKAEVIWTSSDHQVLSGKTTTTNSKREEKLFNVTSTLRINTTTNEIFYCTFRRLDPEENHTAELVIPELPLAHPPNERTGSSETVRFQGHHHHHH

**Q.** `Cc1c(COc2cc(OCc3cncc(C#N)c3)c(CN3CCCC[C@H]3C(=O)Oc3ccc([N+](=O)[O-])cc3)cc2Cl)cccc1-c1cccc(OCCCN2CC[C@@H](O)C2)c1C` [Example 2370, 4-nitrophenyl (S)-1-(5-chloro-2-((5-cyanopyridin-3-yl)methoxy)-4-((3′-(3-((R)-3-hydroxypyrrolidin-1-yl)propoxy)-2,2′-dimethyl-[1,1′-biphenyl]-3-yl)methoxy)benzyl)piperidine-2-carboxylate] was tested. Which IC50 did it give?
**A.** Its IC50 is 10 to 100 nM.

**Q.** For `Cc1c(COc2cc(OCc3cncc(C#N)c3)c(C(=O)NC(C)(CO)CO)cc2Cl)cccc1-c1cccc(OCCCN2CC[C@@H](O)C2)c1C` [Example 2378, (R)-5-chloro-2-((5-cyanopyridin-3-yl)methoxy)-N-(1,3-dihydroxy-2-methylpropan-2-yl)-4-((3′-(3-(3-hydroxypyrrolidin-1-yl)propoxy)-2,2′-dimethyl-[1,1′-biphenyl]-3-yl)methoxy)benzamide], which IC50 is on record?
**A.** Its IC50 is 0.21 to 10 nM.

**Q.** `Cc1c(COc2cc(OCc3cncc(C#N)c3)c(C(=O)NCCO)cc2Cl)cccc1-c1cccc(OCCCN2CC[C@@H](O)C2)c1C` [Example 2379, (R)-5-chloro-2-((5-cyanopyridin-3-yl)methoxy)-N-(2-hydroxyethyl)-4-((3′-(3-(3-hydroxypyrrolidin-1-yl)propoxy)-2,2′-dimethyl-[1,1′-biphenyl]-3-yl)methoxy)benzamide] was tested. Which IC50 did it give?
**A.** The IC50 was 0.21 to 10 nM.

**Q.** For `Cc1c(COc2cc(OCc3cncc(C#N)c3)c(C(=O)N3CCCC[C@H]3C(=O)O)cc2Cl)cccc1-c1cccc(OCCCN2CC[C@@H](O)C2)c1C` [Example 2380, (S)-1-(5-chloro-2-((5-cyanopyridin-3-yl)methoxy)-4-((3′-(3-((R)-3-hydroxypyrrolidin-1-yl)propoxy)-2,2′-dimethyl-[1,1′-biphenyl]-3-yl)methoxy)benzoyl)piperidine-2-carboxylic Acid], which IC50 is on record?
**A.** Its IC50 is 10 to 100 nM.

**Q.** How did the IC50 turn out when `Cc1c(COc2cc(OCc3cncc(C#N)c3)c(C=O)cc2Cl)cccc1-c1cccc(OCCCN2CCC(O)(C(=O)O)CC2)c1C` [Example 2385, 1-(3-((3′-((2-chloro-5-((5-cyanopyridin-3-yl)methoxy)-4-formylphenoxy)methyl)-2,2′-dimethyl-[1,1′-biphenyl]-3-yl)oxy)propyl)-4-hydroxypiperidine-4-carboxylic Acid] was run?
**A.** Its IC50 is 0.21 to 10 nM.

**Q.** For `Cc1c(OCCCN2CC[C@@H](O)C2)cccc1-c1cccc(COc2cc(OCc3cncc(C#N)c3)c(CN[C@](C)(CO)C(=O)O)cc2Cl)c1` [Example 3015], which IC50 is on record?
**A.** The IC50 was 0.21 to 10 nM.

**Q.** `Cc1c(OCCCN2CC[C@@H](O)C2)cccc1-c1cccc(COc2cc(OCc3cncc(C#N)c3)c(CN[C@H](CO)C(=O)O)cc2Cl)c1` [Example 3016, (R)-2-((5-chloro-2-((5-cyanopyridin-3-yl)methoxy)-4-((3′-(3-((R)-3-hydroxypyrrolidin-1-yl)propoxy)-2′-methyl-[1,1′-biphenyl]-3-yl)methoxy)benzyl)amino)-3-hydroxypropanoic Acid] was tested. Which IC50 did it give?
**A.** Its IC50 is 0.21 to 10 nM.

**Q.** Which IC50 does the source give for `Cc1c(OCCCN2CC[C@@H](O)C2)cccc1-c1cccc(COc2cc(OCc3cncc(C#N)c3)c(CN[C@](C)(CO)C(=O)O)cc2Cl)c1Cl` [Example 3017, (R)-2-((5-chloro-4-((2-chloro-3′-(3-((R)-3-hydroxypyrrolidin-1-yl)propoxy)-2′-methyl-[1,1′-biphenyl]-3-yl)methoxy)-2-((5-cyanopyridin-3-yl)methoxy)benzyl)amino)-3-hydroxy-2-methylpropanoic Acid] here?
**A.** Its IC50 is 0.21 to 10 nM.

**Q.** How did the IC50 turn out when `Cc1c(COc2cc(OCc3cncc(C#N)c3)c(CN[C@](C)(CO)C(=O)O)cc2Cl)cccc1-c1cccc(OCCCN2[C@@H]3CC[C@H]2C[C@@H](O)C3)c1` [Example 3019, (R)-2-((5-chloro-2-((5-cyanopyridin-3-yl)methoxy)-4-((3′-(3-((1R,3R,5S)-3-hydroxy-8-azabicyclo[3.2.1]octan-8-yl)propoxy)-2-methyl-[1,1′-biphenyl]-3-yl)methoxy)benzyl)amino)-3-hydroxy-2-methylpropanoic Acid] was run?
**A.** The IC50 was 0.21 to 10 nM.

**Q.** Which IC50 does the source give for `Cc1ccccc1-c1cccc(COc2cc(OCc3cncc(C#N)c3)c(CN[C@@](C)(CO)C(=O)O)cc2Cl)c1C` [Example 3020, (S)-2-((5-chloro-2-((5-cyanopyridin-3-yl)methoxy)-4-((2,2′-dimethyl-[1,1′-biphenyl]-3-yl)methoxy)benzyl)amino)-3-hydroxy-2-methylpropanoic Acid] here?
**A.** Its IC50 is 0.21 to 10 nM.

**Q.** Which IC50 does the source give for `Cc1ccccc1-c1cccc(COc2cc(OCc3cncc(C#N)c3)c(CN[C@@H](CO)C(=O)O)cc2Cl)c1C` [Example 3021, (S)-2-((5-chloro-2-((5-cyanopyridin-3-yl)methoxy)-4-((2,2′-dimethyl-[1,1′-biphenyl]-3-yl)methoxy)benzyl)amino)-3-hydroxypropanoic Acid] here?
**A.** Its IC50 is 0.21 to 10 nM.

**Q.** How did the IC50 turn out when `Cc1ccccc1-c1cccc(COc2cc(OCc3cncc(C#N)c3)c(CN[C@](C)(CO)C(=O)O)cc2Cl)c1C` [Example 3022, (R)-2-((5-chloro-2-((5-cyanopyridin-3-yl)methoxy)-4-((2,2′-dimethyl-[1,1′-biphenyl]-3-yl)methoxy)benzyl)amino)-3-hydroxy-2-methylpropanoic Acid] was run?
**A.** The IC50 was 0.21 to 10 nM.

**Q.** How did the IC50 turn out when `Cc1ccccc1-c1cccc(COc2cc(OCc3cncc(C#N)c3)c(CN3CCCC[C@H]3C(=O)O)cc2Cl)c1C` [Example 3023, (S)-1-(5-chloro-2-((5-cyanopyridin-3-yl)methoxy)-4-((2,2′-dimethyl-[1,1′-biphenyl]-3-yl)methoxy)benzyl)piperidine-2-carboxylic Acid] was run?
**A.** The IC50 was 0.21 to 10 nM.

**Q.** With `COc1c(COc2cc(OCc3cncc(C#N)c3)c(CN[C@](C)(CO)C(=O)O)cc2Cl)cccc1-c1cccc(OCCCN2CC[C@@H](O)C2)c1C` [Example 3025, (R)-2-((5-chloro-2-((5-cyanopyridin-3-yl)methoxy)-4-((3′-(3-((R)-3-hydroxypyrrolidin-1-yl)propoxy)-2-methoxy-2′-methyl-[1,1′-biphenyl]-3-yl)methoxy)benzyl)amino)-3-hydroxy-2-methylpropanoic Acid] as the compound, how does the IC50 read?
**A.** Its IC50 is 0.21 to 10 nM.

**Q.** Which IC50 does the source give for `Cc1cc(COc2cc(OCc3cncc(C#N)c3)c(CN[C@](C)(CO)C(=O)O)cc2Cl)c(C)c(-c2cccc(OCCCN3CC[C@@H](O)C3)c2C)c1` [Example 3026, (R)-2-((5-chloro-2-((5-cyanopyridin-3-yl)methoxy)-4-((3′-(3-((R)-3-hydroxypyrrolidin-1-yl)propoxy)-2,2′,5-trimethyl-[1,1′-biphenyl]-3-yl)methoxy)benzyl)amino)-3-hydroxy-2-methylpropanoic Acid, 2TFA] here?
**A.** Its IC50 is 0.21 to 10 nM.

**Q.** Which IC50 does the source give for `Cc1ccc(OCCCN2CC[C@@H](O)C2)c(C)c1-c1cccc(COc2cc(OCc3cncc(C#N)c3)c(C=O)cc2Cl)c1C` [Example 3027, 5-((4-chloro-2-formyl-5-((3′-(3-((R)-3-hydroxypyrrolidin-1-yl)propoxy)-2,2′,6′-trimethyl-[1,1′-biphenyl]-3-yl)methoxy)phenoxy)methyl)nicotinonitrile] here?
**A.** Its IC50 is 10 to 100 nM.

**Q.** How did the IC50 turn out when `Cc1ccc(OCCCN2CC[C@@H](O)C2)c(C)c1-c1cccc(COc2cc(OCc3cncc(C#N)c3)c(CN[C@@](C)(CO)C(=O)O)cc2Cl)c1C` [Example 3028, (2S)-2-((5-chloro-2-((5-cyanopyridin-3-yl)methoxy)-4-((3′-(3-((R)-3-hydroxypyrrolidin-1-yl)propoxy)-2,2′,6′-trimethyl-[1,1′-biphenyl]-3-yl)methoxy)benzyl)amino)-3-hydroxy-2-methylpropanoic Acid] was run?
**A.** The IC50 was 0.21 to 10 nM.

**Q.** With `Cc1ccc(OCCCN2CC[C@@H](O)C2)c(C)c1-c1cccc(COc2cc(OCc3cncc(C#N)c3)c(CN[C@](C)(CO)C(=O)O)cc2Cl)c1C` [Example 3029, (2R)-2-((5-chloro-2-((5-cyanopyridin-3-yl)methoxy)-4-((3′-(3-((R)-3-hydroxypyrrolidin-1-yl)propoxy)-2,2′,6′-trimethyl-[1,1′-biphenyl]-3-yl)methoxy)benzyl)amino)-3-hydroxy-2-methylpropanoic Acid] as the compound, how does the IC50 read?
**A.** The IC50 was 0.21 to 10 nM.

**Q.** With `Cc1ccc(OCCCN2CC[C@@H](O)C2)c(C)c1-c1cccc(COc2cc(OCc3cncc(C#N)c3)c(CN3CCCC[C@H]3C(=O)O)cc2Cl)c1C` [Example 3030, (2S)-1-(5-chloro-2-((5-cyanopyridin-3-yl)methoxy)-4-((3′-(3-((R)-3-hydroxypyrrolidin-1-yl)propoxy)-2,2′,6′-trimethyl-[1,1′-biphenyl]-3-yl)methoxy)benzyl)piperidine-2-carboxylic Acid] as the compound, how does the IC50 read?
**A.** Its IC50 is 0.21 to 10 nM.

**Q.** `Cc1ccc(OCCCN2CC[C@@H](O)C2)c(C)c1-c1cccc(COc2cc(OCc3cncc(C#N)c3)c(CN[C@@H](CO)C(=O)O)cc2Cl)c1C` [Example 3031, (2S)-2-((5-chloro-2-((5-cyanopyridin-3-yl)methoxy)-4-((3′-(3-((R)-3-hydroxypyrrolidin-1-yl)propoxy)-2,2′,6′-trimethyl-[1,1′-biphenyl]-3-yl)methoxy)benzyl)amino)-3-hydroxypropanoic Acid] was tested. Which IC50 did it give?
**A.** The IC50 was 0.21 to 10 nM.

**Q.** For `COc1cc(OCc2cccc(-c3cccc(OCCCN4CC[C@@H](O)C4)c3C)c2C)c(Cl)cc1C=O` [Example 3032, (R)-5-chloro-4-((3′-(3-(3-hydroxypyrrolidin-1-yl)propoxy)-2,2′-dimethyl-[1,1′-biphenyl]-3-yl)methoxy)-2-methoxybenzaldehyde], which IC50 is on record?
**A.** Its IC50 is 100 to 2000 nM.

**Q.** With `COc1cc(OCc2cccc(-c3cccc(OCCCN4CC[C@@H](O)C4)c3C)c2C)c(Cl)cc1CN[C@@](C)(CO)C(=O)O` [Example 3033, (2S)-2-((5-chloro-4-((3′-(3-((R)-3-hydroxypyrrolidin-1-yl)propoxy)-2,2′-dimethyl-[1,1′-biphenyl]-3-yl)methoxy)-2-methoxybenzyl)amino)-3-hydroxy-2-methylpropanoic Acid] as the compound, how does the IC50 read?
**A.** The IC50 was 0.21 to 10 nM.

**Q.** Which IC50 does the source give for `COc1cc(OCc2cccc(-c3cccc(OCCCN4CC[C@@H](O)C4)c3C)c2C)c(Cl)cc1CN[C@](C)(CO)C(=O)O` [Example 3034, (2R)-2-((5-chloro-4-((3′-(3-((R)-3-hydroxypyrrolidin-1-yl)propoxy)-2,2′-dimethyl-[1,1′-biphenyl]-3-yl)methoxy)-2-methoxybenzyl)amino)-3-hydroxy-2-methylpropanoic Acid] here?
**A.** The IC50 was 0.21 to 10 nM.
